Measured values reported in patent publication US9545413B2, “Methods of forming ciclopirox or derivatives thereof in a subject by administration of prodrug” (The University of Kansas, priority 2010, dated 2017).
Where “and” joins values, the source holds several entries; their conditions need not be identical. Identical values can stand only once. Marks after values point to notes of the source that are not given here. Each block holds one molecule with its values, some of them ahead of it.

Tests used:
[1] = system: Notch-1 signaling pathway; assay: Inhibition of Notch-1 signaling; type: cell-based; settings: bladder cancer
From the text: The prodrug converts to the active ciclopirox compound that effectively suppresses stem cells in bladder cancer and specifically targets the Notch-1 signaling pathway. […] Suppressing Notch is a significant activity for the compound to inhibit bladder and other cancers where Notch signaling is active (e.g. colon cancer, osteosarcoma).
(§1) Bladder cancer presents as two diseases, NMIBC and muscle invasive bladder cancer (MIBC). Approximately three-fourths of newly diagnosed bladder cancer patients present with NMIBC. NMIBC, as it invades into bladder muscle, becomes MIBC. MIBC often metastasizes, requiring systemically administered chemotherapy agents. […] The ciclopirox from ciclopirox-POM prodrug delivery inhibits cell proliferation, colony formation, and spheroid formation in well characterized NMIBC and MIBC cell lines. Although that ciclopirox's fungicidal activity is mediated through its ability to chelate iron, and interrupt iron-dependent intracellular processes, ciclopirox in vitro anti-cancer activity in independent of commercially available iron chelators. […] Accordingly, ciclopirox-POM prodrug can be used in treatment of all forms of bladder cancer, and in cancer stem cells of many different cancers where the Notch signaling pathway is active.

[2] = system: NMIBC and MIBC cell lines; assay: Anticancer activity in bladder cancer cell lines; type: cell-based
From the text: as §1

[3] = Mouse plasma ciclopirox pharmacokinetics after 10 mg/kg IV bolus; type: in vivo; settings: for Plasma Ciclopirox Concentrations: individual animals A-F, phosphate disodium salt
Procedure: The plasma ciclopirox concentrations in (ng/mL) were determined following bolus administration of ciclopirox-POM prodrug at a 10 mg/kg IV bolus in a mouse model. Time points where data collected are shown in Table 1 to be at 5, 15, 30, 60, 90, 120, 180, and 240 minutes along with the data. […] The IV bolus formulation for prodrug was in 25 mM phosphate buffer.
(§2) Time points where data collected are shown in Table 1 to be at 5, 15, 30, 60, 90, 120, 180, and 240 minutes along with the data.
Additionally, mouse intravenous dose pharmacokinetics were determined.
(§3) The IV bolus and oral administrations are described above.

[4] = Mouse plasma ciclopirox pharmacokinetics after 30 mg/kg oral dose; type: in vivo
Procedure: The plasma ciclopirox (i.e., CPX) concentrations in (ng/mL) were determined following bolus administration of ciclopirox-POM prodrug at a 30 mg/kg orally in a mouse model. Time points where data collected are shown in Table 3 to be at 5, 15, 30, 60, 90, 120, 180, and 240 minutes along with the data. […] The oral formulation is a composition having Orasweet SF along with the […].
as §2
Additionally, mouse oral dose pharmacokinetics were determined.
as §3

[5] = Detection of prodrug in plasma and urine after administration; type: in vivo
From the text: Accordingly, ciclopirox is readily bioavailable when given IV as the prodrug. […] Based on the data, it is reasonable to believe that the ciclopirox-POM prodrug is rapidly converted to ciclopirox.
Accordingly, ciclopirox is readily bioavailable when given IV as the prodrug. […] Based on the data, it is reasonable to believe that the ciclopirox-POM prodrug is rapidly converted back to ciclopirox.

[6] = in vivo, iv, 10 mg/kg, Plasma Ciclopirox Concentrations
[7] = in vivo, iv, 10 mg/kg, Plasma Ciclopirox Concentrations, Mean
[8] = mouse, in vivo, po, 30 mg/kg, Plasma Ciclopirox Concentrations
[9] = mouse, in vivo, po, 30 mg/kg, Plasma Ciclopirox Concentrations, Mean
[10] = ciclopirox, mouse, 30 mg/kg oral

Structure (SMILES): Cc1cc(C2CCCCC2)n(O)c(=O)c1 [ciclopirox, 6-cyclohexyl-1-hydroxy-4-methylpyridin-2(1H)-one]
- Notch-1 signaling pathway [1]: inhibits
- Cell proliferation [2]: inhibits
- Colony formation [2]: inhibits
- Spheroid formation [2]: inhibits

- Alpha rate constant ([3]; in vivo, iv, 10 mg/kg): 0.08802 min⁻¹
- Beta rate constant ([3]; in vivo, iv, 10 mg/kg): 0.01208 min⁻¹
- Vdbeta ([3]; in vivo, iv, 10 mg/kg): 4.5652 L/kg
- clearance ([3]; in vivo, iv, 10 mg/kg): 55.2 mL/min/kg
- AUC ([3]; in vivo, iv, 10 mg/kg, AUC (CPX AUC)): 2340 ng·h/mL
- half-life ([3]; in vivo, iv, 10 mg/kg, Alpha Half-life): 7.87 min
- half-life ([3]; in vivo, iv, 10 mg/kg, Beta Half-life): 57.4 min
- concentration at 5 min [3, 6]: 6090 ng/mL
- concentration at 60 min [3, 6]: 171 ng/mL
- concentration at 90 min [3, 6]: 45.2 ng/mL
- concentration at 120 min [3, 6]: 46.1 ng/mL
- concentration at 240 min [3, 6]: 12 ng/mL
- concentration at 5 min [3, 7]: 4880 ng/mL
- concentration at 15 min [3, 7]: 892 ng/mL
- concentration at 30 min [3, 7]: 354 ng/mL
- concentration at 60 min [3, 7]: 133 ng/mL
- concentration at 90 min [3, 7]: 58.7 ng/mL
- concentration at 120 min [3, 7]: 43.2 ng/mL
- concentration at 180 min [3, 7]: 25.2 ng/mL
- concentration at 240 min [3, 7]: 15.9 ng/mL
- bioavailability ([4]; mouse, in vivo, po): 21%
- AUC ([4]; mouse, in vivo, po, 30 mg/kg): 956 ng·h/mL
- Beta rate constant ([4]; mouse, in vivo, po, 30 mg/kg): 0.00916 min⁻¹
- CL/F ([4]; mouse, in vivo, po, 30 mg/kg): 405 mL/min/kg
- Cmax ([4]; mouse, in vivo, po, 30 mg/kg): 548 ng/mL
- Tmax ([4]; mouse, in vivo, po, 30 mg/kg): 15 min
- half-life ([4]; mouse, in vivo, po, 30 mg/kg): 75.7 min
- Plasma Ciclopirox Concentrations ([4]; mouse, in vivo, po, 30 mg/kg, 0 min): 0 ng/mL
- concentration at 0 min [4, 8]: 0 ng/mL
- concentration at 15 min [4, 8]: 478 ng/mL
- concentration at 30 min [4, 8]: 427 ng/mL
- concentration at 180 min [4, 8]: 78.2 ng/mL
- concentration at 240 min [4, 8]: 72.3 ng/mL
- concentration at 0 min [4, 9]: 0 ng/mL
- concentration at 15 min [4, 9]: 548 ng/mL
- concentration at 30 min [4, 9]: 449 ng/mL
- concentration at 60 min [4, 9]: 309 ng/mL
- concentration at 90 min [4, 9]: 260 ng/mL
- concentration at 120 min [4, 9]: 151 ng/mL
- concentration at 180 min [4, 9]: 80.1 ng/mL
- concentration at 240 min [4, 9]: 74.7 ng/mL
Structure (SMILES): Cc1cc(C2CCCCC2)n(O)c(=O)c1 [Ciclopirox Olamine, reference compound]

- Detection of the prodrug in plasma ([5]; following IV and oral administration): inability to detect
- Detection of the prodrug in plasma and urine ([5]; following IV, oral, subcutaneous and intraperitoneal administration): inability to detect
- Plasma Ciclopirox Concentrations, Mean ([3]; 10 mg/kg IV bolus, 5 min): 8005 ng/mL
- Plasma Ciclopirox Concentrations, Mean ([3]; 10 mg/kg IV bolus, 15 min): 2763.3 ng/mL
- Plasma Ciclopirox Concentrations, Mean ([3]; 10 mg/kg IV bolus, 30 min): 957 ng/mL
- Plasma Ciclopirox Concentrations, Mean ([3]; 10 mg/kg IV bolus, 60 min): 342.8 ng/mL
- Plasma Ciclopirox Concentrations, Mean ([3]; 10 mg/kg IV bolus, 90 min): 123 ng/mL
- Plasma Ciclopirox Concentrations, Mean ([3]; 10 mg/kg IV bolus, 120 min): 60.9 ng/mL
- Plasma Ciclopirox Concentrations, Mean ([3]; 10 mg/kg IV bolus, 180 min): 25.5 ng/mL
- Plasma Ciclopirox Concentrations, Mean ([3]; 10 mg/kg IV bolus, 240 min): 11.1 ng/mL
- CPX Bioavailability Following Prodrug Administration ([3]; IV administration, prodrug compared to olamine salt): 1.143
- Alpha Half-life ([3]; ciclopirox, 10 mg/kg IV bolus): 9.84 min
- Alpha rate constant ([3]; ciclopirox, 10 mg/kg IV bolus): 0.07043 min⁻¹
- Beta Half-life ([3]; ciclopirox, 10 mg/kg IV bolus): 35.92 min
- Beta rate constant ([3]; ciclopirox, 10 mg/kg IV bolus): 0.01929 min⁻¹
- CL ([3]; ciclopirox, 10 mg/kg IV bolus): 48.275* mL/min/kg
- Vdbeta ([3]; ciclopirox, 10 mg/kg IV bolus): 2.502 L/kg
- Beta Half-life [4, 10]: 52.76 min
- Beta rate constant [4, 10]: 0.01316 min⁻¹
- CL/F [4, 10]: 722.06 mL/min/kg
- Cmax [4, 10]: 520.3 ng/mL
- Tmax [4, 10]: 15 min
- Bioavailability following oral administration ([4]; mice, oral administration): 12%
- Plasma Ciclopirox Concentrations ([4]; mouse, 30 mg/kg oral dose, 0 min, individual animals A-F): 0 ng/mL
- Plasma Ciclopirox Concentrations, Mean ([4]; mouse, 30 mg/kg oral dose, 0 min): 0 ng/mL
- Plasma Ciclopirox Concentrations, Mean ([4]; mouse, 30 mg/kg oral dose, 15 min): 520.3 ng/mL
- Plasma Ciclopirox Concentrations, Mean ([4]; mouse, 30 mg/kg oral dose, 30 min): 280.7 ng/mL
- Plasma Ciclopirox Concentrations, Mean ([4]; mouse, 30 mg/kg oral dose, 60 min): 215.7 ng/mL
- Plasma Ciclopirox Concentrations, Mean ([4]; mouse, 30 mg/kg oral dose, 90 min): 106.9 ng/mL
- Plasma Ciclopirox Concentrations, Mean ([4]; mouse, 30 mg/kg oral dose, 120 min): 72.5 ng/mL
- Plasma Ciclopirox Concentrations, Mean ([4]; mouse, 30 mg/kg oral dose, 180 min): 49.4 ng/mL
- Plasma Ciclopirox Concentrations, Mean ([4]; mouse, 30 mg/kg oral dose, 240 min): 20.1 ng/mL
- Foral ([4]; mouse, oral 30 mg/kg v. IV bolus 10 mg/kg of the same substance): 0.06686
- CPX Bioavailability Following Prodrug Administration ([4]; mouse, oral administration, prodrug compared to olamine salt): 0.5603
Structure (SMILES): Cc1cc(C2CCCCC2)n(OCOP(=O)([O-])[O-])c(=O)c1.[Na+].[Na+] [Ciclopirox-POM]
- Plasma Ciclopirox Concentrations ([3]; 10 mg/kg IV bolus, 5 min, 10 mg/kg): 7280 ng/mL and 7320 ng/mL and 6370 ng/mL and 9700 ng/mL and 8500 ng/mL and 8860 ng/mL
- Plasma Ciclopirox Concentrations ([3]; 10 mg/kg IV bolus, 15 min, 10 mg/kg): 3310 ng/mL and 3180 ng/mL and 1520 ng/mL and 1370 ng/mL and 4010 ng/mL and 3190 ng/mL
- Plasma Ciclopirox Concentrations ([3]; 10 mg/kg IV bolus, 30 min, 10 mg/kg): 994 ng/mL and 1200 ng/mL and 986 ng/mL and 1030 ng/mL and 1080 ng/mL and 452 ng/mL
- Plasma Ciclopirox Concentrations ([3]; 10 mg/kg IV bolus, 60 min, 10 mg/kg): 410 ng/mL and 259 ng/mL (2×) and 284 ng/mL and 409 ng/mL and 436 ng/mL
- Plasma Ciclopirox Concentrations ([3]; 10 mg/kg IV bolus, 90 min, 10 mg/kg): 97.6 ng/mL and 157 ng/mL and 74.2 ng/mL and 79.1 ng/mL and 162 ng/mL and 168 ng/mL
- Plasma Ciclopirox Concentrations ([3]; 10 mg/kg IV bolus, 120 min, 10 mg/kg): 58 ng/mL and 73.7 ng/mL and 57.9 ng/mL and 19.3 ng/mL and 71.7 ng/mL and 84.8 ng/mL
- Plasma Ciclopirox Concentrations ([3]; 10 mg/kg IV bolus, 180 min, 10 mg/kg): 18.1 ng/mL and 23 ng/mL and 19.5 ng/mL and 34.8 ng/mL and 19.7 ng/mL and 37.7 ng/mL
- Plasma Ciclopirox Concentrations ([3]; 10 mg/kg IV bolus, 240 min, 10 mg/kg): 13 ng/mL and 10 ng/mL (2×) and 15 ng/mL and 12 ng/mL and 8 ng/mL
- Plasma Ciclopirox Concentrations ([4]; mouse, 30 mg/kg oral dose, 15 min, individual animals A-F, phosphate disodium salt, 30 mg/kg): 388 ng/mL and 646 ng/mL and 857 ng/mL and 245 ng/mL and 479 ng/mL and 507 ng/mL
- Plasma Ciclopirox Concentrations ([4]; mouse, 30 mg/kg oral dose, 30 min, individual animals A-F, phosphate disodium salt, 30 mg/kg): 302 ng/mL and 252 ng/mL and 264 ng/mL and 317 ng/mL and 207 ng/mL and 342 ng/mL
- Plasma Ciclopirox Concentrations ([4]; mouse, 30 mg/kg oral dose, 60 min, individual animals A-F, phosphate disodium salt, 30 mg/kg): 129 ng/mL and 404 ng/mL and 154 ng/mL and 229 ng/mL and 171 ng/mL and 207 ng/mL
- Plasma Ciclopirox Concentrations ([4]; mouse, 30 mg/kg oral dose, 90 min, individual animals A-F, phosphate disodium salt, 30 mg/kg): 91 ng/mL and 66.8 ng/mL and 146 ng/mL and 137 ng/mL and 120 ng/mL and 80.3 ng/mL
- Plasma Ciclopirox Concentrations ([4]; mouse, 30 mg/kg oral dose, 120 min, individual animals A-F, phosphate disodium salt, 30 mg/kg): 72.5 ng/mL and 60.6 ng/mL and 64.6 ng/mL and 81.4 ng/mL and 83.6 ng/mL
- Plasma Ciclopirox Concentrations ([4]; mouse, 30 mg/kg oral dose, 180 min, individual animals A-F, phosphate disodium salt, 30 mg/kg): 36.8 ng/mL and 45.1 ng/mL and 59.1 ng/mL and 66.4 ng/mL and 44.9 ng/mL and 44 ng/mL
- Plasma Ciclopirox Concentrations ([4]; mouse, 30 mg/kg oral dose, 240 min, individual animals A-F, phosphate disodium salt, 30 mg/kg): 9.51 ng/mL and 19 ng/mL (2×) and 14.7 ng/mL and 38.1 ng/mL
